From patent publication US20070167526A1, “Topical mecamylamine formulations for ocular administration and uses thereof” (priority 2005, published 2007)
Where two headings read alike, the source gives them in different places.

Columns and labels:
[1] = cited from earlier work
in vivo = settings: rabbit
Method: As used herein, the term “topically administered to a rabbit eye,” and cognates thereof, refers to the administration of a particular mecamylamine formulation, including formulations of pharmaceutically acceptable salts of mecamylamine, by applying 100 μL of the mecamylamine formulation to the cornea of each eye (2 drops of 50 μL each), wherein at the time of application the bottom eyelid is separated from the surface of the eye to make a pocket to ensure the entire dose is retained in contact with the eye. When the concentration of mecamylamine in plasma and in the retinal/choroidal tissue is to be measured in connection with the calculation of the ratio of the mecamylamine concentration in the retina/choroid versus the concentration of mecamylamine in plasma, the concentration of each is determined 1 hour after application of the formulation. The amount of mecamylamine present in plasma and the retina/choroid is determined by LC/MS/MS using internal standards of dextromethorphan and diphenhydramine and a standard of known concentration of mecamylamine. An exemplary method of administration of the topical formulation of mecamylamine is provided in Example 5. An exemplary LC/MS/MS method for determining the ratios described herein is given in detail in Example 6. When the mean maximum concentration of mecamylamine in plasma is to be determined, the concentration is again determined as described above and in Example 6. The term “mean maximum concentration of mecamylamine,” and its cognates, as used herein refers to the mean maximum concentration of mecamylamine measured in plasma when monitored over a 6 hour time period after administration of the formulation. When the mean total concentration of mecamylamine in plasma is to be determined, the concentration is again determined as described above and in Example 6. The term “total concentration of mecamylamine in plasma measured as the area under the curve,” (AUC) and cognates thereof, refers to summation of the areas under plot of the drug plasma versus time using a simple trapezoidal method with drug plasma time points taken to include 1, 3 and 6 hours after topical administration. Determination of AUC for corneal tissue, retinal/choroid tissue and aqueous humor is determined similarly. When the concentration of mecamylamine in plasma and in the corneal tissue is to be measured in connection with the calculation of the ratio of the mecamylamine concentration in the cornea (or aqueous humor) versus the concentration of mecamylamine in plasma, the concentration of each is determined 1 hour after application of 50 μl of the formulation. The amount of mecamylamine present in plasma and the cornea (or aqueous humor) is determined by LC/MS/MS using internal standards of dextromethorphan and diphenhydramine and a standard of known concentration of mecamylamine. An exemplary method of administration of the topical formulation of mecamylamine is provided in Example 5. An exemplary LC/MS/MS method for determining the ratios described herein is given in detail in Example 6.
A single dose of a polymer-free solution, gellan gum formulation and hypromellose formulation containing 3% mecamylamine hydrochloride, was instilled in the eyes of rabbits (Dutch-belted male rabbits (Convance, Denver, Pa.) minimum age 2 months and with weights of 1.6 to 1.8 kg). Two animals were euthanized 30 minutes, 1 hour or 3 hours after dosing.
Sample of blood and ocular tissue (obtained as described in previous examples) were analyzed for mecamylamine concentration using an LC MS/MS method up to 3 hours after dosing.
The area-under-the-curve (AUC) was calculated using a trapezoidal rule on a population pharmacokinetic basis (see Table 9).

[2] = 6-hour ocular pharmacokinetics of 2% Mecamylamine GELRITE solution following topical instillation (Example 10); assay type: in vivo, New Zealand White rabbit; settings: rabbit; for concentration at 1 h / concentration at 3 h / concentration at 6 h: female, New Zealand White, topical; for Mecamylamine concentration in blood Cell Fraction, Mean / Mecamylamine concentration in blood Plasma, Mean: Pre
Method: The time of each dose administration was recorded. There was no mortality in the treatment group.

In the case of `CNC1(C)C2CCC(C2)C1(C)C` (stereo not shown) [mecamylamine, N-2,3,3-tetramethylbicyclo(2.2.1)heptan-2-amine], the pka [1] is listed as about 11.2, the Kp at 1 h (in vivo; male, Dutch-belted, in vivo) is listed as at least 1000 and the “ratio of the concentration of mecamylamine in the aqueous humor versus plasma” value (in vivo; male, Dutch-belted, in vivo, 1 h) is listed as “at least 50:1”. The AUC (in vivo; male, Dutch-belted, in vivo, topical or ocular) was under 85 ng·h/mL, the “safety issues during the study” value (in vivo; single ocular dose) was “No safety issues arose” and the concentration at 1 h ([2]; aqueous humor, 2% in GELRITE, 2 × 50 μL, OS (unilateral) treated eye, 1 hr, read-out: Mecamylamine concentration in Aqueous humor, Mean) was 2510 ng/g. For the same compound, the concentration at 1 h ([2]; aqueous humor, 2% in GELRITE, 2 × 50 μL, OU (bilateral), 1 hr, read-out: Mecamylamine concentration in Aqueous humor, Mean) was 3910 ng/g, the concentration at 3 h ([2]; aqueous humor, 2% in GELRITE, 2 × 50 μL, OU (bilateral), 3 hr, read-out: Mecamylamine concentration in Aqueous humor, Mean) was 500 ng/g and the concentration at 6 h ([2]; aqueous humor, 2% in GELRITE, 2 × 50 μL, OU (bilateral), 6 hr, read-out: Mecamylamine concentration in Aqueous humor, Mean) was 48.9 ng/g. The concentration at 1 h ([2]; aqueous humor, fellow (vehicle) eye of unilaterally dosed animals, 1 hr, read-out: Mecamylamine concentration in Aqueous humor, Mean) was 9.7 ng/g, the concentration at 1 h ([2]; blood cell fraction, group MEC OS 1 hr, Post, read-out: Mecamylamine concentration in blood Cell Fraction, Mean) was 15 ng/mL and the concentration at 1 h ([2]; blood cell fraction, group MEC OU 1 hr, Post, read-out: Mecamylamine concentration in blood Cell Fraction, Mean) was 33.1 ng/mL. It also gave a concentration at 3 h ([2]; blood cell fraction, group MEC OU 3 hr, Post, read-out: Mecamylamine concentration in blood Cell Fraction, Mean) of 7 ng/mL, a concentration at 6 h ([2]; blood cell fraction, group MEC OU 6 hr, Post, read-out: Mecamylamine concentration in blood Cell Fraction, Mean) of 1.2 ng/mL and a concentration at 1 h ([2]; choroid (treated eye), 2% in GELRITE, 2 × 50 μL, OS (unilateral) treated eye, 1 hr, read-out: Mecamylamine concentration in Choroid, Mean) of about 2800 ng/g. It also gave a concentration at 1 h ([2]; choroid of the fellow (vehicle) eye, fellow (vehicle) eye of unilaterally dosed animals, 1 hr, read-out: Mecamylamine concentration in Choroid, Mean) of about 700 ng/g, a concentration at 1 h ([2]; choroid, 2% in GELRITE, 2 × 50 μL, OU (bilateral), 1 hr, read-out: Mecamylamine concentration in Choroid, Mean) of about 14000 ng/g and a concentration at 6 h ([2]; choroid, 2% in GELRITE, 2 × 50 μL, OU (bilateral), 6 hr, read-out: Mecamylamine concentration in Choroid, Mean) of about 260 ng/g. The concentration at 1 h ([2]; cornea, 2% in GELRITE, 2 × 50 μL, OS (unilateral) treated eye, 1 hr, read-out: Mecamylamine concentration in Cornea, Mean) was 9600 ng/g, the concentration at 1 h ([2]; cornea, 2% in GELRITE, 2 × 50 μL, OU (bilateral), 1 hr, read-out: Mecamylamine concentration in Cornea, Mean) was 17900 ng/g and the concentration at 3 h ([2]; cornea, 2% in GELRITE, 2 × 50 μL, OU (bilateral), 3 hr, read-out: Mecamylamine concentration in Cornea, Mean) was 3820 ng/g. It also gave a concentration at 6 h ([2]; cornea, 2% in GELRITE, 2 × 50 μL, OU (bilateral), 6 hr, read-out: Mecamylamine concentration in Cornea, Mean) of 1230 ng/g, a concentration at 1 h ([2]; cornea, fellow (vehicle) eye of unilaterally dosed animals, 1 hr, read-out: Mecamylamine concentration in Cornea, Mean) of 652 ng/g and a concentration at 1 h ([2]; plasma, group MEC OS 1 hr, Post, read-out: Mecamylamine concentration in blood Plasma, Mean) of 16.3 ng/mL. For the same compound, the concentration at 1 h ([2]; plasma, group MEC OU 1 hr, Post, read-out: Mecamylamine concentration in blood Plasma, Mean) was 37.8 ng/mL, the concentration at 3 h ([2]; plasma, group MEC OU 3 hr, Post, read-out: Mecamylamine concentration in blood Plasma, Mean) was 8.3 ng/mL and the concentration at 6 h ([2]; plasma, group MEC OU 6 hr, Post, read-out: Mecamylamine concentration in blood Plasma, Mean) was 0.3 ng/mL. The concentration at 1 h ([2]; retina, 2% in GELRITE, 2 × 50 μL, OS (unilateral) treated eye, 1 hr, read-out: Mecamylamine concentration in Retina, Mean) was 4160 ng/g, the concentration at 1 h ([2]; retina, 2% in GELRITE, 2 × 50 μL, OU (bilateral), 1 hr, read-out: Mecamylamine concentration in Retina, Mean) was 14700 ng/g and the concentration at 3 h ([2]; retina, 2% in GELRITE, 2 × 50 μL, OU (bilateral), 3 hr, read-out: Mecamylamine concentration in Retina, Mean) was 563 ng/g. The concentration at 6 h ([2]; retina, 2% in GELRITE, 2 × 50 μL, OU (bilateral), 6 hr, read-out: Mecamylamine concentration in Retina, Mean) was 310 ng/g, the concentration at 1 h ([2]; retina, fellow (vehicle) eye of unilaterally dosed animals, 1 hr, read-out: Mecamylamine concentration in Retina, Mean) was 781 ng/g and the concentration at 1 h ([2]; vitreous humor, 2% in GELRITE, 2 × 50 μL, OS (unilateral) treated eye, 1 hr, read-out: Mecamylamine concentration in Vitreous humor, Mean) was 37.8 ng/g. For the same compound, the concentration at 1 h ([2]; vitreous humor, 2% in GELRITE, 2 × 50 μL, OU (bilateral), 1 hr, read-out: Mecamylamine concentration in Vitreous humor, Mean) was 131 ng/g, the concentration at 3 h ([2]; vitreous humor, 2% in GELRITE, 2 × 50 μL, OU (bilateral), 3 hr, read-out: Mecamylamine concentration in Vitreous humor, Mean) was 17.7 ng/g and the concentration at 6 h ([2]; vitreous humor, 2% in GELRITE, 2 × 50 μL, OU (bilateral), 6 hr, read-out: Mecamylamine concentration in Vitreous humor, Mean) was 5.9 ng/g. For the same compound, the concentration at 1 h ([2]; vitreous humor, fellow (vehicle) eye of unilaterally dosed animals, 1 hr, read-out: Mecamylamine concentration in Vitreous humor, Mean) was 10.4 ng/g, the “Mecamylamine concentration in Choroid, Mean” value ([2]; 2% in GELRITE, 2 × 50 μL, OS (unilateral) treated eye, 1 hr, listed as MEC) was 2806.7 ng/g and the “Mecamylamine concentration in Choroid, Mean” value ([2]; 2% in GELRITE, 2 × 50 μL, OU (bilateral), 1 hr, listed as MEC) was 14170.0 ng/g. The “Mecamylamine concentration in Choroid, Mean” value ([2]; 2% in GELRITE, 2 × 50 μL, OU (bilateral), 3 hr) was about 500 ng/g, the “Mecamylamine concentration in Choroid, Mean” value ([2]; 2% in GELRITE, 2 × 50 μL, OU (bilateral), 3 hr, listed as MEC) was 1086.0 ng/g and the “Mecamylamine concentration in Choroid, Mean” value ([2]; 2% in GELRITE, 2 × 50 μL, OU (bilateral), 6 hr, listed as MEC) was 264.5 ng/g. The “Mean levels in the plasma and packed cells” value ([2]; 2% in GELRITE, highest one hour after bilateral dosing) was 5 to 38 ng/mL, the “Mecamylamine concentration in Choroid, Mean” value ([2]; fellow (vehicle) eye of unilaterally dosed animals, 1 hr, listed as MEC) was 705.7 ng/g and the “Mecamylamine concentration in blood Cell Fraction, Mean” value ([2]; group MEC OS 1 hr) was 0.0 ng/mL. For the same compound, the “Mecamylamine concentration in blood Plasma, Mean” value ([2]; group MEC OS 1 hr) was 0.0 ng/mL, the “Mecamylamine concentration in blood Cell Fraction, Mean” value ([2]; group MEC OU 1 hr) was 0.0 ng/mL and the “Mecamylamine concentration in blood Plasma, Mean” value ([2]; group MEC OU 1 hr) was 0.0 ng/mL. The “Mecamylamine concentration in blood Cell Fraction, Mean” value ([2]; group MEC OU 3 hr) was 0.0 ng/mL, the “Mecamylamine concentration in blood Plasma, Mean” value ([2]; group MEC OU 3 hr) was 0.0 ng/mL and the “Mecamylamine concentration in blood Cell Fraction, Mean” value ([2]; group MEC OU 6 hr) was 0.0 ng/mL. For the same compound, the “Mecamylamine concentration in blood Plasma, Mean” value ([2]; group MEC OU 6 hr) was 0.0 ng/mL.
